Test results taken from ChEMBL document CHEMBL1201862, “PubChem BioAssay data set” (2004).
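Method: 48-hour compound exposure of cells in 96-well plates, five concentrations, linear interpolation of endpoints. GI50 is the concentration that inhibits growth by half.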 The source made the active and inactive calls. Rule as the data show it: active = GI50 up to about 1.1 µM and inactive = higher.

Experiments:
Experiment in all cases: inhibition of tumour cell growth, NCI panel, 48 h
OVCAR-5 = tested on: OVCAR-5
SN12C = tested on: SN12C
HCT-116 = tested on: HCT-116
K562 = tested on: K562
LOX IMVI = tested on: LOX IMVI
KM12 = tested on: KM12
OVCAR-3 = tested on: OVCAR-3
RXF 393 = tested on: RXF 393
RPMI-8226 = tested on: RPMI-8226
SR = tested on: SR
HL-60 = tested on: HL-60
NCI-H522 = tested on: NCI-H522
HOP-92 = tested on: HOP-92
SK-OV-3 = tested on: SK-OV-3
CCRF-CEM = tested on: CCRF-CEM
EKVX = tested on: EKVX

| SMILES | GI50 (OVCAR-5) | GI50 (SN12C) | GI50 (HCT-116) | GI50 (K562) | GI50 (LOX IMVI) | GI50 (KM12) | GI50 (OVCAR-3) | GI50 (RXF 393) | GI50 (RPMI-8226) | GI50 (SR) | GI50 (HL-60) | GI50 (NCI-H522) | GI50 (HOP-92) | GI50 (SK-OV-3) | GI50 (CCRF-CEM) | GI50 (EKVX) |
| --- | --- | --- | --- | --- | --- | --- | --- | --- | --- | --- | --- | --- | --- | --- | --- | --- |
| O=c1[nH]n2c(=O)cc[nH]c2c1-c1nnns1 | > 100 µM (inactive) | > 100 µM (inactive) | > 100 µM (inactive) | > 100 µM (inactive) | > 100 µM (inactive) | > 100 µM (inactive) | > 100 µM (inactive) | > 100 µM (inactive) | > 100 µM (inactive) | > 100 µM (inactive) | > 100 µM (inactive) | > 100 µM (inactive) | > 100 µM (inactive) | > 100 µM (inactive) | > 100 µM (inactive) | > 100 µM (inactive) |
| CCCC/C=C/C1Cc2ccccc2CN1S(=O)(=O)c1ccc(C)cc1 (centres undefined) | 12.5 µM (inactive) | 10.6 µM (inactive) | 1.6 µM (inactive) | 3.64 µM (inactive) | 8.34 µM (inactive) | 9.91 µM (inactive) | 9.57 µM (inactive) | 10.8 µM (inactive) | 2.07 µM (inactive) | 2.77 µM (inactive) | 1.84 µM (inactive) | 4.31 µM (inactive) | 2.15 µM (inactive) | 26.6 µM (inactive) | 4.9 µM (inactive) | 13.7 µM (inactive) |
| NCCn1cnc2nc(NC(=O)c3ccccc3)[nH]c(=O)c21 | > 100 µM (inactive) | > 100 µM (inactive) | > 100 µM (inactive) | > 100 µM (inactive) | > 100 µM (inactive) | > 100 µM (inactive) | > 100 µM (inactive) | > 100 µM (inactive) | > 100 µM (inactive) | > 100 µM (inactive) | > 100 µM (inactive) | – | > 100 µM (inactive) | – | – | > 100 µM (inactive) |
| COc1ccc2c(c1OCC(=O)O)C(=O)C(CCC(=O)O)CC2 (centres undefined) | – | > 100 µM (inactive) | > 100 µM (inactive) | – | > 100 µM (inactive) | – | > 100 µM (inactive) | > 100 µM (inactive) | > 100 µM (inactive) | – | > 100 µM (inactive) | – | – | > 100 µM (inactive) | > 100 µM (inactive) | > 100 µM (inactive) |
| O=C1C(=O)N(C2C3CC4CC(C3)CC2C4)C(=O)C(=O)C1c1nc2ccccc2o1 (centres undefined) | 23.2 µM (inactive) | 98.4 µM (inactive) | 37 µM (inactive) | 21.1 µM (inactive) | > 100 µM (inactive) | > 100 µM (inactive) | 25.1 µM (inactive) | 70 µM (inactive) | 52.4 µM (inactive) | – | – | – | 61.1 µM (inactive) | > 100 µM (inactive) | – | > 100 µM (inactive) |
| CC1(c2cccc3ccccc23)OC(=O)c2ccccc21 (centres undefined) | 57.1 µM (inactive) | 22 µM (inactive) | 16.9 µM (inactive) | 12.8 µM (inactive) | 19.3 µM (inactive) | 25.1 µM (inactive) | 23.5 µM (inactive) | 18.5 µM (inactive) | 19.6 µM (inactive) | – | 13.4 µM (inactive) | 25.2 µM (inactive) | 13.5 µM (inactive) | 32.5 µM (inactive) | 14.3 µM (inactive) | 30.1 µM (inactive) |
| O=C(OCCOCBr)c1ccccc1 | > 100 µM (inactive) | > 100 µM (inactive) | > 100 µM (inactive) | > 100 µM (inactive) | > 100 µM (inactive) | > 100 µM (inactive) | > 100 µM (inactive) | – | > 100 µM (inactive) | > 100 µM (inactive) | > 100 µM (inactive) | > 100 µM (inactive) | > 100 µM (inactive) | > 100 µM (inactive) | > 100 µM (inactive) | > 100 µM (inactive) |
| Cc1nn(C)c(=S)n(C)c1=O | 2.26 µM (inactive) | 0.927 µM (active) | 0.416 µM (active) | 0.343 µM (active) | 1.79 µM (inactive) | – | 4.19 µM (inactive) | 0.498 µM (active) | 0.556 µM (active) | – | 1.31 µM (inactive) | 0.275 µM (active) | 0.291 µM (active) | 14.7 µM (inactive) | 1.55 µM (inactive) | 4.83 µM (inactive) |
| CC(=O)Oc1ccc2c(=O)c(C(C)=O)coc2c1 | > 100 µM (inactive) | – | > 100 µM (inactive) | > 100 µM (inactive) | 81.8 µM (inactive) | > 100 µM (inactive) | > 100 µM (inactive) | > 100 µM (inactive) | > 100 µM (inactive) | > 100 µM (inactive) | > 100 µM (inactive) | > 100 µM (inactive) | 79.6 µM (inactive) | – | > 100 µM (inactive) | > 100 µM (inactive) |
| Cc1ccc(/C=N/C23CC4CC(CC(C4)C2)C3)cc1 | > 100 µM (inactive) | > 100 µM (inactive) | > 100 µM (inactive) | > 100 µM (inactive) | > 100 µM (inactive) | > 100 µM (inactive) | > 100 µM (inactive) | > 100 µM (inactive) | > 100 µM (inactive) | > 100 µM (inactive) | > 100 µM (inactive) | – | – | > 100 µM (inactive) | – | > 100 µM (inactive) |
| O=c1c2c(nc3n1CCC3)sc1c(O)c(Br)ccc12 | 20.7 µM (inactive) | 16.4 µM (inactive) | 15.2 µM (inactive) | 19.3 µM (inactive) | 13 µM (inactive) | 14.3 µM (inactive) | 19.1 µM (inactive) | 29.9 µM (inactive) | 21.3 µM (inactive) | 12.1 µM (inactive) | 14.7 µM (inactive) | 16 µM (inactive) | > 100 µM (inactive) | 23.9 µM (inactive) | 15.5 µM (inactive) | 23.9 µM (inactive) |
| COC(=O)NC(=O)c1cn(C2CCCCC2)c(=O)[nH]c1=O | > 100 µM (inactive) | > 100 µM (inactive) | > 100 µM (inactive) | > 100 µM (inactive) | > 100 µM (inactive) | > 100 µM (inactive) | > 100 µM (inactive) | > 100 µM (inactive) | > 100 µM (inactive) | > 100 µM (inactive) | > 100 µM (inactive) | > 100 µM (inactive) | > 100 µM (inactive) | > 100 µM (inactive) | > 100 µM (inactive) | – |
| COc1ccccc1/C=C(\C#N)C(=O)c1ccccc1 | > 100 µM (inactive) | > 100 µM (inactive) | > 100 µM (inactive) | > 100 µM (inactive) | > 100 µM (inactive) | > 100 µM (inactive) | > 100 µM (inactive) | – | > 100 µM (inactive) | > 100 µM (inactive) | > 100 µM (inactive) | > 100 µM (inactive) | > 100 µM (inactive) | > 100 µM (inactive) | > 100 µM (inactive) | > 100 µM (inactive) |
| CC(=O)O[C@]1(C)CCC2C(C)C(=O)OC2C2C(C)[C@@H](O)CC21 (some centres undefined) | 29.8 µM (inactive) | 35.6 µM (inactive) | 27.2 µM (inactive) | 17.1 µM (inactive) | 17.9 µM (inactive) | 49.8 µM (inactive) | 12.9 µM (inactive) | 32.3 µM (inactive) | 20.5 µM (inactive) | 3.56 µM (inactive) | 14.2 µM (inactive) | 13.1 µM (inactive) | 26.4 µM (inactive) | 49.9 µM (inactive) | 23.8 µM (inactive) | 67.5 µM (inactive) |
| Cc1ccc(S(=O)(=O)c2ccc(N)cc2)cc1 | > 100 µM (inactive) | – | > 100 µM (inactive) | > 100 µM (inactive) | – | 47.6 µM (inactive) | > 100 µM (inactive) | > 100 µM (inactive) | > 100 µM (inactive) | – | > 100 µM (inactive) | – | – | > 100 µM (inactive) | > 100 µM (inactive) | > 100 µM (inactive) |
| C/C(=N\NC(N)=O)c1sc(-c2nc(C)c(/C(C)=N/NC(N)=O)s2)nc1C | > 100 µM (inactive) | > 100 µM (inactive) | > 10 µM (inactive) | 53.8 µM (inactive) | > 100 µM (inactive) | > 100 µM (inactive) | > 100 µM (inactive) | > 100 µM (inactive) | > 100 µM (inactive) | 22.6 µM (inactive) | 40 µM (inactive) | 70.5 µM (inactive) | > 100 µM (inactive) | > 100 µM (inactive) | 90.4 µM (inactive) | 21.5 µM (inactive) |
| N/N=C(/Cc1nc2ccc(C(=O)c3ccccc3)cc2nc1O)C(=O)Nc1ccc([N+](=O)[O-])cc1[N+](=O)[O-] | > 10 µM (inactive) | > 10 µM (inactive) | > 10 µM (inactive) | > 10 µM (inactive) | > 10 µM (inactive) | > 100 µM (inactive) | > 10 µM (inactive) | > 100 µM (inactive) | > 10 µM (inactive) | > 10 µM (inactive) | > 10 µM (inactive) | > 10 µM (inactive) | > 10 µM (inactive) | 55.7 µM (inactive) | > 10 µM (inactive) | > 100 µM (inactive) |
| Nc1ccc(C(=O)CC2(O)C(=O)Nc3c(Cl)cc(Cl)cc32)cc1 (centres undefined) | > 100 µM (inactive) | > 100 µM (inactive) | 66.7 µM (inactive) | 40.1 µM (inactive) | 34.5 µM (inactive) | 83 µM (inactive) | > 100 µM (inactive) | > 100 µM (inactive) | 50.9 µM (inactive) | – | 24.9 µM (inactive) | 42.5 µM (inactive) | > 100 µM (inactive) | > 100 µM (inactive) | 16.4 µM (inactive) | > 100 µM (inactive) |
| O=[N+]([O-])c1cc(I)cc(/C=N/NS(=O)(=O)c2ccc(Cl)cc2)c1O | 25 µM (inactive) | 23.7 µM (inactive) | 21.2 µM (inactive) | 20 µM (inactive) | 19.8 µM (inactive) | 18.2 µM (inactive) | 19.1 µM (inactive) | 23.4 µM (inactive) | 25.4 µM (inactive) | 21.4 µM (inactive) | 27.7 µM (inactive) | 16.9 µM (inactive) | 20.5 µM (inactive) | 24.7 µM (inactive) | 25.4 µM (inactive) | 32.6 µM (inactive) |
